Legend:
[1] = test system: different microorganism cultures; assay: In vitro antibacterial activity, standard dilution tests (microorganisms of Table I); assay type: cell-based
[2] = test system: Neisseria gonorrhoeae L997 ISM68/126; assay: MIC, broth dilution test; assay type: cell-based; conditions: GC base broth +1% Isovitalex, 48 h, CO2-enriched atmosphere, 37° C.
[3] = test system: Staph. haemolyticus L602 (clinical isolate); assay: MIC, broth dilution test; assay type: cell-based; conditions: Isosensitest broth, 24 h, 37° C.
[4] = test system: Pseudomonas aeruginosa L4 ATCC10145; assay: MIC, broth dilution test; assay type: cell-based; conditions: Isosensitest broth, 24 h, 37° C.
[5] = test system: Ureaplasma urealyticum L1479 (clinical isolate); assay: MIC, broth dilution test; assay type: cell-based; conditions: PPLO broth with supplements, 24 h, about 10^4 color-changing units/ml, 37° C.
[6] = test system: Strep. faecalis L149 ATCC 7080; assay: MIC, broth dilution test; assay type: cell-based; conditions: Isosensitest broth, 24 h, 37° C.
[7] = test system: Proteus vulgaris L79 X19H ATCC881; assay: MIC, broth dilution test; assay type: cell-based; conditions: Isosensitest broth, 24 h, 37° C.
[8] = test system: Staph. epidermidis L147 ATCC 12228 (coagulase negative); conditions: Isosensitest broth, 24 h, 37° C.
Staph. aureus L165 = assay: MIC, broth dilution test; assay type: cell-based; conditions: Isosensitest broth, 24 h
[9] = test system: Clostridium perfringens L290 ISS 30543; conditions: AC broth, 24 h, anaerobic atmosphere, 37° C.
Strep. pyogenes L49 C203 = assay: MIC, broth dilution test; assay type: cell-based; conditions: Todd-Hewitt broth, 24 h, 37° C.
[10] = test system: Haemophilus influenzae L 970 type b ATCC 19418; assay: MIC, broth dilution test; assay type: cell-based; conditions: Brain Heart broth +1% Supplement C, 48 h, 37° C.
[11] = test system: Strep. pneumoniae L44 UC41; assay: MIC, broth dilution test; assay type: cell-based; conditions: Todd-Hewitt broth, 24 h, 37° C.
[12] = test system: Klebsiella pneumoniae L142; assay: MIC, broth dilution test; assay type: cell-based; conditions: Isosensitest broth, 24 h, 37° C.
S. pyogenes C 203 (L 49) = assay: Experimental septicemia in the mice; assay type: in vivo, CD-1 mice; conditions: mice infected i.p. with S. pyogenes C 203 (L 49); compound s.c. immediately after infection; survival on the 7th day, Spearman and Karber
Method: The antimicrobial activity of the compounds of the invention is confirmed also in experimental septicemia in the mice. Control and treatment groups may include ten CD-1 mice (Charles River) weighing 18-22 g. They are infected intraperitoneally with 0.5 ml of bacterial suspension prepared by diluting an overnight culture of S. pyogenes C 203 (L 49) with sterile peptonized saline. Inocula are adjusted so that untreated animals die of septicemia within 48 h. The compounds to be tested are administered subcutaneously immediately after infection. On the 7th day, the ED50 in mg/kg is calculated by the method of Spearman and Karber (D. J. Finney "Statistical Methods in Biological Assay" Griffin, page 524, 1952) from the percentage of surviving animals at each dose.

[13] = test system: Strep. mitis L796 (clinical isolate); assay: MIC, broth dilution test; assay type: cell-based; conditions: Todd-Hewitt broth, 24 h, 37° C.

Substance | level of antimicrobial activity compared with de-acyl antibiotic A 40926 (Table I) [1] | M.I.C. [2] [µg/mL] | M.I.C. [3] [µg/mL] | M.I.C. [4] [µg/mL] | M.I.C. [5] [µg/mL] | M.I.C. [6] [µg/mL] | M.I.C. [7] [µg/mL] | M.I.C. [8] [µg/mL] | M.I.C. (Staph. aureus L165; Staph. aureus (10^6 cfu/ml)) [µg/mL] | M.I.C. (Staph. aureus L165; Staph. aureus (30% bovine serum)) [µg/mL] | M.I.C. (Staph. aureus L165; Staph. aureus L165, 37° C., about 10^4-10^5 cfu/ml) [µg/mL] | M.I.C. [9] [µg/mL] | M.I.C. (Strep. pyogenes L49 C203) [µg/mL] | M.I.C. [10] [µg/mL] | M.I.C. [11] [µg/mL] | M.I.C. [12] [µg/mL] | ED50 (S. pyogenes C 203 (L 49)) [mg/kg] | M.I.C. [13] [µg/mL]
de-acyl antibiotic A 40926 P | substantially the same level of antimicrobial activity as that reported above for de-acyl antibiotic A 40926 |  |  |  |  |  |  |  |  |  |  |  |  |  |  |  |  | 
antibiotic A 40926 aminoglucuronyl aglycon | substantially the same level of antimicrobial activity as that reported above for de-acyl antibiotic A 40926 |  |  |  |  |  |  |  |  |  |  |  |  |  |  |  |  | 
de-acyl antibiotic A 40926 |  | 64 | 32 | > 128 | > 128 | 2 | > 128 | 2 | 2 | 2 | 1 | 0.13 | 0.25 | 128 | 0.25 | > 128 | 2.33 | 0.5
